# According to patent US9517227B2, “Dihydropyrazoles” (Merck Patent GmbH, priority 2011, dated 2016):
# Tests used:
# [1] = molecular target: T1, FSHR (Homo sapiens, UniProt P23945); test: EC50 of cyclic AMP production in CHO FSHR cells + EC20 FSH (Assay A); format: cell-based; settings: CHO-FSHR-LUC cells, 0.265 pM FSH (EC20), cAMP HTRF, 1 h
# T1 construct: expressed in transfected cells; host or cells: CHO (Cho-FSHR-LUC-1-1-43)
# T1 sequence (P23945 18-695): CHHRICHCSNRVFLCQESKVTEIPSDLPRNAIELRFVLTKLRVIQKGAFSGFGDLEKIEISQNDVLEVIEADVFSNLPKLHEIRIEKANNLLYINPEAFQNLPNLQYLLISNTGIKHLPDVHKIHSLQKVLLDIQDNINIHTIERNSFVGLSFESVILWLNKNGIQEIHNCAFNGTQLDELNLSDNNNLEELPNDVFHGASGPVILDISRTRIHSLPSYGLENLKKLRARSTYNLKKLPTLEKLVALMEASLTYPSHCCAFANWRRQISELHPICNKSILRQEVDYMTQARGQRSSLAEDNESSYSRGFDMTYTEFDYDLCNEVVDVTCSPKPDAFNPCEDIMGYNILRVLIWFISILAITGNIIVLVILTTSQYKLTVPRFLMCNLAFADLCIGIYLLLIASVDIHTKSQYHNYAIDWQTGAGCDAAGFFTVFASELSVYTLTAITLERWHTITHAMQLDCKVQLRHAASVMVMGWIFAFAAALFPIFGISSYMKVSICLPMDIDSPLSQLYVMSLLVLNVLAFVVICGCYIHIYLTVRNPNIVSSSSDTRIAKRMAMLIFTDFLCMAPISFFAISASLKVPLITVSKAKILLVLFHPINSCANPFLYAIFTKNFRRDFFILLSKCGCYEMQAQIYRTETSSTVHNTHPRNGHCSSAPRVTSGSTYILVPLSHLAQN
# Method: EC50 of Cyclic AMP Production in CHO FSHR Cells+EC20 FSH (Assay A)
# 2500 Cho-FSHR-LUC-1-1-43 cells were plated per well in 5 μl of phenol red free DMEM/F12+1% FBS. Cells were plated in 384 well, solid white low volume plates (Greiner 784075) by Multidrop. Cells were assayed by adding 100 μl of 2×EC20 FSH/IBMX in DMEM/F12+0.1% BSA) by Multidrop to 2 μl of test compound stamped in 384 well plates (compounds are diluted 1:50). The final FSH concentration was 0.265 pM, and the final IBMX concentration was 200 μM. The compound plate map was as follows: Column 1: 2 μl of DMSO; Column 2: 2 μl of DMSO; Columns 3-12 and 13-24: 2 μl of test compound, diluted 1:4 in 100% DMSO, or 2 μl of FSH, diluted 1:4 in DMEM/F12+0.1% BSA. The starting concentration for FSH was 50 nM (final concentration was 0.5 nM). Furthermore, Column 23 contained 2 μl of EC100 FSH reference (100×) (diluted in DMEM/F12+0.1% BSA) at a final concentration of 0.5 nM, and Column 24 contained 2 μl of 1 mM AS707664/2 reference compound 2. 5 μl of compound+EC20 FSH mixture were transferred to cell plates (1:2 dilution into 5 μl of cell media). The plates were incubated at 37° C. for 1 h. 10 μl of mixed HTRF (CisBio #62AM4PEC) reagents were added per well and incubated at room temperature for 1 h. The plates were read on Envision using the cAMP HTRF—low volume 384 well protocol. The readout was the calculated fluorescence ratio (665 nm/620 nm).
# [2] = molecular target: T2, follicle-stimulating hormone (FSH) receptor (Rattus norvegicus, UniProt P20395); test: Rat granulosa EC50 FSH (Assay B); format: cell-based; settings: rat granulosa cells; for EC50: per Yanofsky et al. 2006
# T2 construct: endogenous in cells; host or cells: rat granulosa cells
# T2 sequence (P20395 18-692): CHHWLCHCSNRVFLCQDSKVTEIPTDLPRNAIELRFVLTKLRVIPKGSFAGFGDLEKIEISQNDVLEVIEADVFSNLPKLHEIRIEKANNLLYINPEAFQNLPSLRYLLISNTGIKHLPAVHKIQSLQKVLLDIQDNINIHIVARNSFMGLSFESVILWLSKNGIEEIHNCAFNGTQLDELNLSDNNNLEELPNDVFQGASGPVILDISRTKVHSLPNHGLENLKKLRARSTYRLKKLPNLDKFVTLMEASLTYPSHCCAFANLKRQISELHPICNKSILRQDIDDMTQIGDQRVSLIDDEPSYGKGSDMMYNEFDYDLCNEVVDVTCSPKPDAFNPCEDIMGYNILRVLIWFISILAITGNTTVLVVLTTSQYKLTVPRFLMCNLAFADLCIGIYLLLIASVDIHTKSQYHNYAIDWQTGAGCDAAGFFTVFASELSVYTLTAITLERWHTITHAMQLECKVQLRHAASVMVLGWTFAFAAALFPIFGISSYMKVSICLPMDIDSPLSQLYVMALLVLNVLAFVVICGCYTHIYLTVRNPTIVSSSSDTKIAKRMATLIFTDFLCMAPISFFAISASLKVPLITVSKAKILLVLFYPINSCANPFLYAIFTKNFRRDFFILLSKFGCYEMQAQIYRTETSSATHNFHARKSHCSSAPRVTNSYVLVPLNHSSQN
# Method: Rat Granulosa EC50 FSH (Assay B)
# The assay was performed pursuant to the teaching of Yanofsky et al. (2006) Allosteric activation of the follicle-stimulating hormone (FSH) receptor by selective, nonpeptide agonists. JBC 281(19): 13226-13233, which is incorporated by reference in the disclosure of the invention.
EC50 [1],EC50 [2],Assay B: value given in % (rat granulosa) ([2]; meaning of % not stated),SMILES
35.2 µM,–,–,"COc1ccc(C2=NN(C(=O)c3ccc(Cl)cc3)C(C)(C)C2)cc1OC [Compound 247, (4-Chloro-phenyl)-[3-(3,4-dimethoxy-phenyl)-5,5-dimethyl-4,5-dihydro-pyrazol-1-yl]-methanone]"
38.7 µM,0.572 µM,–,"COc1ccc(C2=NN(C(=O)c3cccc(C)c3)C(C)(C)C2)cc1OC [Compound 232, [3-(3,4-Dimethoxy-phenyl)-5,5-dimethyl-4,5-dihydro-pyrazol-1-yl]-m-tolyl-methanone]"
27.1 µM,–,–,"COc1ccc(C2=NN(C(=O)c3cccc(Cl)c3)C(C)(C)C2)cc1OC [Compound 251, (3-Chloro-phenyl)-[3-(3,4-dimethoxy-phenyl)-5,5-dimethyl-4,5-dihydro-pyrazol-1-yl]-methanone]"
2 µM,–,–,COc1ccc(C2=NN(C(=O)C(OC)c3cccc(C(F)(F)F)c3)CC2)cc1OC (stereo not drawn) [Compound 277]
2.2 µM,0.128 µM,–,"COc1ccc(C2=NN(C(=O)c3ccc(Oc4ccccc4)cc3)C(C)(C)C2)cc1OC [Compound 230, [3-(3,4-Dimethoxy-phenyl)-5,5-dimethyl-4,5-dihydro-pyrazol-1-yl]-(4-phenoxy-phenyl)-methanone]"
–,0.134 µM,–,"COc1ccc(C2=NN(C(=O)c3ccccc3F)C(C)(C)C2)cc1OC [Compound 228, [3-(3,4-Dimethoxy-phenyl)-5,5-dimethyl-4,5-dihydro-pyrazol-1-yl]-(2-fluoro-phenyl)-methanone]"
35 µM,–,–,"COc1ccc(C2=NN(C(=O)Cc3cccc(F)c3)C(C)(C)C2)cc1OC [Compound 255, 1-[3-(3,4-Dimethoxy-phenyl)-5,5-dimethyl-4,5-dihydro-pyrazol-1-yl]-2-(3-fluoro-phenyl)-ethanone]"
25 µM,–,–,COc1ccc(C2=NN(C(=O)C(OC)c3ccc(Cl)cc3)CC2)cc1OC (stereo not drawn) [Compound 274]
33.2 µM,–,–,"COc1ccc(C2=NN(C(=O)c3ccc(Br)cc3)C(C)(C)C2)cc1OC [Compound 257, (4-Bromo-phenyl)-[3-(3,4-dimethoxy-phenyl)-5,5-dimethyl-4,5-dihydro-pyrazol-1-yl]-methanone]"
–,5.4 µM,–,COc1ccc(C2=NN(C(=O)[C@H](OC)c3ccccc3)CC2)cc1OC [Compound 290]
24 µM,–,–,COc1ccc(C(OC)C(=O)N2CCC(c3ccc(OC)c(OC)c3)=N2)cc1 (stereo not drawn) [Compound 275]
31.2 µM,–,–,COc1ccc(C2=NN(C(=O)c3cccc(F)c3)CC2)c(OC)c1OC [Compound 223]
–,0.032 µM,–,"COc1ccc(C2=NN(C(=O)c3cccc(Oc4ccccc4)c3)C(C)(C)C2)cc1OC [Compound 229, [3-(3,4-Dimethoxy-phenyl)-5,5-dimethyl-4,5-dihydro-pyrazol-1-yl]-(3-phenoxy-phenyl)-methanone]"
27 µM,–,–,COc1ccc(C2=NN(C(=O)C(OC)c3ccc(C)cc3)CC2)cc1OC (stereo not drawn) [Compound 282]
–,–,144.00%,COc1ccc(C2=NN(C(=O)C(OC)c3ccccc3)CC2)cc1OC (stereo not drawn) [Compound 291]
30 µM,–,–,"CCc1ccc(C(=O)N2N=C(c3ccc(OC)c(OC)c3)CC2(C)C)cc1 [Compound 259, [3-(3,4-Dimethoxy-phenyl)-5,5-dimethyl-4,5-dihydro-pyrazol-1-yl]-(4-ethyl-phenyl)-methanone]"

# The remaining lines, values behind:
SMILES,EC50 [1],EC50 [2],Assay B: value given in % (rat granulosa) ([2]; meaning of % not stated)
O=C(c1cccc(F)c1)N1CCC(c2ccc3c(c2)OCCO3)=N1 [Compound 189],28 µM,–,–
"CSc1ccc(C2=NN(C(=O)c3cccc(F)c3)CC2)cc1 [Compound 204, (3-Fluoro-phenyl)-[3-(4-methylsulfanyl-phenyl)-4,5-dihydro-pyrazol-1-yl]methanone]",8.25 µM,–,–
COc1ccc(C2=NN(C(=O)c3cccc(F)c3)CC2)cc1OC [Compound 1],16.7 µM,0.878 µM,–
COc1ccc(C2=NN(C(=O)c3cc(F)c(F)c(F)c3F)CC2)cc1OC [Compound 80],28 µM,1.19 µM,–
COc1ccc(C2=NN(C(=O)c3cccc(Oc4ccccc4)c3)CC2)cc1OC [Compound 70],39 µM,0.11 µM,–
COc1ccc(C2=NN(C(=O)c3ccc4c(c3)OCO4)CC2)cc1OC [Compound 3],40.3 µM,0.656 µM,–
"COc1ccc(C2=NN(C(=O)c3cccc(F)c3)C(C)(C)C2)cc1OC [Compound 129, [3-(3,4-Dimethoxy-phenyl)-5,5-dimethyl-4,5-dihydro-pyrazol-1-yl]-(3-fluoro-phenyl)-methanone]",35 µM,0.363 µM,–
COc1ccc(C2=NN(C(=O)c3cccc(OC(C)(F)F)c3)CC2)cc1OC [Compound 67],21 µM,0.814 µM,–
Cn1ccc2cc(C3=NN(C(=O)c4cccc(F)c4)CC3)ccc21 [Compound 185],4.5 µM,–,–
COc1ccc(C2=NN(C(=O)c3ccc(C)c(F)c3)CC2)cc1OC [Compound 136],30 µM,0.106 µM,–
"COc1ccc(C2=NN(C(=O)c3cccc(F)c3)CC2(C)C)cc1OC [Compound 149, [3-(3,4-Dimethoxy-phenyl)-4,4-dimethyl-4,5-dihydro-pyrazol-1-yl]-(3-fluoro-phenyl)-methanone]",0.382 µM,–,–
"O=C(c1ccc2c(c1)OCO2)N1CCC(c2ccc(OC(F)(F)F)cc2)=N1 [Compound 199, Benzo[1,3]dioxol-5-yl-[3-(4-trifluoromethoxy-phenyl)-4,5-dihydro-pyrazol-1-yl]methanone]",34.3 µM,–,–
"COc1ccc(C2=NN(C(=O)c3cccc(C#N)c3)C(C)(C)C2)cc1OC [Compound 132, 3-[3-(3,4-Dimethoxy-phenyl)-5,5-dimethyl-4,5-dihydro-pyrazole-1-carbonyl]-benzonitrile]",41.5 µM,0.025 µM,–
COc1ccc(C2=NN(C(=O)c3cccc(F)c3)CC2)cc1S(=O)(=O)NCc1ccccc1 [Compound 214],1.1 µM,–,–
COc1ccc(C2=NN(C(=O)c3ccc(C(F)(F)F)c(F)c3)CC2)cc1OC [Compound 75],5.7 µM,–,–
"CSc1ccc(C2=NN(C(=O)c3ccc4c(c3)OCO4)CC2)cc1 [Compound 205, Benzo[1,3]dioxol-5-yl-[3-(4-methylsulfanyl-phenyl)-4,5-dihydro-pyrazol-1-yl]-methanone]",30 µM,–,–
"Cc1cccc(C2=NN(C(=O)c3cccc(F)c3)CC2)c1 [Compound 179, (3-Fluoro-phenyl)-(3-m-tolyl-4,5-dihydro-pyrazol-1-yl)-methanone]",34 µM,–,–
O=C(c1cccc(F)c1)N1CCC(c2ccc(C(F)(F)F)cc2)=N1 [Compound 207],44.5 µM,–,–
CC(C)(C)Oc1ccc(C2=NN(C(=O)c3cccc(F)c3)CC2)cc1 [Compound 210],7.39 µM,–,–
